In experiment [1] the target is GDP-bound KRAS wild-type protein (Homo sapiens, UniProt P01116). Nature of the experiment: Binding to KRAS by surface plasmon resonance (SPR), Single Cycle Kinetics. The following applies: SPR Single Cycle Kinetics, GDP-bound KRAS wild-type protein, 1:1 binding model; read-out: KRAS KD. In general terms: In SPR one partner is held on a chip, and binding of the other changes the refractive index at the surface.

Experiment [2] concerns the target GDP-bound HRAS wild-type protein (Homo sapiens, UniProt P01112). Nature of the experiment: Binding to HRAS by surface plasmon resonance (SPR), Single Cycle Kinetics. The settings on record: SPR, GDP-bound HRAS wild-type protein vs GDP-bound KRAS wild-type protein.
The target in experiment [3] is GDP-bound NRAS wild-type protein (Homo sapiens, UniProt P01111). Nature of the experiment: Binding to NRAS by surface plasmon resonance (SPR), Single Cycle Kinetics. The following applies: SPR, GDP-bound NRAS wild-type protein vs GDP-bound KRAS wild-type protein.
Chain of GDP-bound NRAS wild-type protein (P01111 whole entry): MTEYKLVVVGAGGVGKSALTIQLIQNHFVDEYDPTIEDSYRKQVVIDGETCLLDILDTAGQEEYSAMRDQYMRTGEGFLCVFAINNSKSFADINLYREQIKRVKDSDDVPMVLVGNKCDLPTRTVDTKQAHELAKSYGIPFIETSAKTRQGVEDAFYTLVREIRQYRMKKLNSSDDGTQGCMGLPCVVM

Each structure is given as a SMILES string. *1 amine or outer side, *2 acyl side, *3 side chain or, on linkers, in order; H or OH if unused. Where a SMILES comes first, the peptide text is derived from it. Bridges are numbered along the chain shown (N, C = ends). [ ]: non-standard residue; d: D form. The star is where a group is joined. hPhe(3,5-F2-4-CF3) = N[C@@H](CCc1cc(F)c(C(F)(F)F)c(F)c1)C(=O)O; hPhe(3-Cl-4-CF3) = N[C@@H](CCc1ccc(C(F)(F)F)c(Cl)c1)C(=O)O; NPrPhe(4-CF3) = CCCN[C@@H](Cc1ccc(C(F)(F)F)cc1)C(=O)O; X13 = O=C([C@@H](N[*:1])C1CC(F)(F)C1)[*:2]; NMeGly(cPent) = CN[C@H](C(=O)O)C1CCCC1; Hyp = O=C(O)[C@@H]1C[C@@H](O)CN1; NMeD = CN[C@@H](CC(=O)O)C(=O)O; NMeL = CN[C@@H](CC(C)C)C(=O)O; αMeL = CC(C)C[C@](C)(N)C(=O)O; Morpholide = C1CN(*)CCO1; NMeA = CN[C@@H](C)C(=O)O; Ac5c = NC1(C(=O)O)CCCC1; Aze = O=C(O)[C@@H]1CCN1; Ac4c = NC1(C(=O)O)CCC1; Sar = CNCC(=O)O

Chain of GDP-bound KRAS wild-type protein (P01116 whole entry): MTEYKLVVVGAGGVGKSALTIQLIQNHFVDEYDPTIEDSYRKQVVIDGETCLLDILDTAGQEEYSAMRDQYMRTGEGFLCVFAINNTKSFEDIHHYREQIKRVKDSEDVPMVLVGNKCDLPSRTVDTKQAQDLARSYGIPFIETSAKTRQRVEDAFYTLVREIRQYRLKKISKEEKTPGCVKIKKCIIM
Chain of GDP-bound HRAS wild-type protein (P01112 whole entry): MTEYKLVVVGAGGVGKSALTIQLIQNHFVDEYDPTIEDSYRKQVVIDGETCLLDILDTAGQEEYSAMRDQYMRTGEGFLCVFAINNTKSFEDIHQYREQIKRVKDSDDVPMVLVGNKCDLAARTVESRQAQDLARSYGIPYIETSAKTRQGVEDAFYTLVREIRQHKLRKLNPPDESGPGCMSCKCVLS

On to `CCCN1C(=O)[C@@H]2CCN2C(=O)CN(C)C(=O)[C@H]([C@@H](C)CC)NC(=O)[C@H](CC(C)C)N(C)C(=O)C[C@@H](C(=O)N(C)C)N(C)C(=O)[C@H](C2CCCC2)N(C)C(=O)C2(CCC2)NC(=O)[C@@H]2C[C@@H](OCC)CN2C(=O)[C@H](CCc2ccc(C(F)(F)F)c(Cl)c2)NC(=O)CN(C)C(=O)[C@@H]1Cc1ccc(C(F)(F)F)cc1` [PP0445] ([NMeL]I[Sar][Aze][NPrPhe(4-CF3)][Sar][hPhe(3-Cl-4-CF3)][Hyp](Et)[Ac4c][NMeGly(cPent)][NMeD]-NMe2; lactam N-11), for which the Kd (as a rule, a measure of binding affinity in units of concentration) in experiment [1] was found to be 0.025 nM. In addition, the “HRAS/KRAS (ratio of KD value with respect to HRAS to KD value with respect to KRAS)” value in experiment [2] is “C (A compound having a KD ratio of 0.1 or more and less than 3 is denoted as C)”. The “NRAS/KRAS (ratio of KD value with respect to NRAS to KD value with respect to KRAS)” value in experiment [3] is “C (A compound having a KD ratio of 0.1 or more and less than 3 is denoted as C)”.

For `CCCN1C(=O)[C@@H]2CCN2C(=O)[C@H](C)N(C)C(=O)[C@H]([C@@H](C)CC)NC(=O)[C@H](CC(C)C)N(C)C(=O)C[C@@H](C(=O)N2CCOCC2)N(C)C(=O)[C@H](C2CCCC2)N(C)C(=O)C2(CCCC2)NC(=O)[C@H](C)NC(=O)[C@H](CCc2ccc(C(F)(F)F)c(Cl)c2)NC(=O)CN(C)C(=O)[C@@H]1Cc1ccc(C(F)(F)F)cc1` [PP0153] ([NMeL]I[NMeA][Aze][NPrPhe(4-CF3)][Sar][hPhe(3-Cl-4-CF3)]A[Ac5c][NMeGly(cPent)][NMeD]-Morpholide; lactam N-11), the Kd in experiment [1] came out at 0.33 nM. The “HRAS/KRAS (ratio of KD value for HRAS to KD value for KRAS)” value in experiment [2] was “C (A compound having a KD ratio of 0.1 or more and less than 3 is denoted as C)”. The “NRAS/KRAS (ratio of KD value for NRAS to KD value for KRAS)” value in experiment [3] is “C (A compound having a KD ratio of 0.1 or more and less than 3 is denoted as C)”.

In the case of `CCCN1C(=O)CN(C)C(=O)[C@@H]2CCN2C(=O)[C@H](C2CC(F)(F)C2)NC(=O)[C@H](CC(C)C)N(C)C(=O)C[C@@H](C(=O)N2CCOCC2)N(C)C(=O)[C@H](C2CCCC2)N(C)C(=O)C2(CCCC2)NC(=O)[C@@H]2CCCN2C(=O)[C@H](CCc2cc(F)c(C(F)(F)F)c(F)c2)NC(=O)CN(C)C(=O)[C@@H]1Cc1ccc(C(F)(F)F)cc1` [PP0786] ([NMeL][X13][Aze][Sar][NPrPhe(4-CF3)][Sar][hPhe(3,5-F2-4-CF3)]P[Ac5c][NMeGly(cPent)][NMeD]-Morpholide; lactam N-11), in experiment [1], the Kd was determined as 0.6 nM. In addition, the “HRAS/KRAS (ratio of KD value with respect to HRAS to KD value with respect to KRAS)” value in experiment [2] is “B (a compound having 3 or more and less than 10 is denoted as B)”. Besides, the “NRAS/KRAS (ratio of KD value with respect to NRAS to KD value with respect to KRAS)” value in experiment [3] was “B (a compound having 3 or more and less than 10 is denoted as B)”.

In the case of `CCCN1C(=O)[C@@H]2CCN2C(=O)CN(C)C(=O)[C@H]([C@@H](C)CC)NC(=O)[C@H](CC(C)C)N(C)C(=O)C[C@@H](C(=O)N2CCOCC2)N(C)C(=O)[C@H](C2CCCC2)N(C)C(=O)[C@](C)(CC(C)C)NC(=O)[C@@H]2CCCN2C(=O)[C@H](CCc2cc(F)c(C(F)(F)F)c(F)c2)NC(=O)CN(C)C(=O)[C@@H]1Cc1ccc(C(F)(F)F)cc1` [PP0795] ([NMeL]I[Sar][Aze][NPrPhe(4-CF3)][Sar][hPhe(3,5-F2-4-CF3)]P[αMeL][NMeGly(cPent)][NMeD]-Morpholide; lactam N-11), the Kd in experiment [1] is 2.5 nM. Moreover, the “HRAS/KRAS (ratio of KD value with respect to HRAS to KD value with respect to KRAS)” value in experiment [2] is “B (a compound having 3 or more and less than 10 is denoted as B)”. The “NRAS/KRAS (ratio of KD value with respect to NRAS to KD value with respect to KRAS)” value in experiment [3] is “C (A compound having a KD ratio of 0.1 or more and less than 3 is denoted as C)”.
